# Tested on: K12877-001-R-J1-PDC complex spheroid viability
# Experiment: Anticancer human tumor K12877-001-R-J1-PDC patient-derived lung adenocarcinoma cell line growth inhibition [RAS]
# Settings: for IC50: curve of first compound; for viability, T/C: stronger effect = lower value
# Outline: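 Multi-cell-type spheroids: tumor cells plus HUVEC endothelial cells and mesenchymal stem cells. RAS-pathway inhibitors were combined with targeted agents, each dosed in half-log steps down from clinical Cmax, or from 10 microM when Cmax was unknown.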
# [1] = second compound 0.000949 µM, first compound 0.00316 µM
# [2] = second compound 0.000949 µM, first compound 0.01 µM
# [3] = second compound 0.000949 µM, first compound 0.0316 µM
# [4] = second compound 0.000949 µM, first compound 0.1 µM
# [5] = second compound 0.000949 µM, first compound 0.316 µM
# [6] = second compound 0.000949 µM, first compound 1 µM
# [7] = second compound 0.003 µM, first compound 0.00316 µM
# [8] = second compound 0.003 µM, first compound 0.01 µM
# [9] = second compound 0.003 µM, first compound 0.0316 µM
# [10] = second compound 0.003 µM, first compound 0.1 µM
# [11] = second compound 0.003 µM, first compound 0.316 µM
# [12] = second compound 0.003 µM, first compound 1 µM
# [13] = second compound 0.00949 µM, first compound 0.00316 µM
# [14] = second compound 0.00949 µM, first compound 0.01 µM
# [15] = second compound 0.00949 µM, first compound 0.0316 µM
# [16] = second compound 0.00949 µM, first compound 0.1 µM
# [17] = second compound 0.00949 µM, first compound 0.316 µM
# [18] = second compound 0.00949 µM, first compound 1 µM
# [19] = second compound 0.03 µM, first compound 0.00316 µM
# [20] = second compound 0.03 µM, first compound 0.01 µM
# [21] = second compound 0.03 µM, first compound 0.0316 µM
# [22] = second compound 0.03 µM, first compound 0.1 µM
# [23] = second compound 0.03 µM, first compound 0.316 µM
# [24] = second compound 0.03 µM, first compound 1 µM
# [25] = second compound 0.0949 µM, first compound 0.00316 µM
# [26] = second compound 0.0949 µM, first compound 0.01 µM
# [27] = second compound 0.0949 µM, first compound 0.0316 µM
# [28] = second compound 0.0949 µM, first compound 0.1 µM
# [29] = second compound 0.0949 µM, first compound 0.316 µM
# [30] = second compound 0.0949 µM, first compound 1 µM
# [31] = second compound 0.3 µM, first compound 0.00316 µM
# [32] = second compound 0.3 µM, first compound 0.01 µM
# [33] = second compound 0.3 µM, first compound 0.0316 µM
# [34] = second compound 0.3 µM, first compound 0.1 µM
# [35] = second compound 0.3 µM, first compound 0.316 µM
# [36] = second compound 0.3 µM, first compound 1 µM
# [37] = second compound 0.000949 µM, first compound 3.16 µM
# [38] = second compound 0.000949 µM, first compound 10 µM
# [39] = second compound 0.003 µM, first compound 3.16 µM
# [40] = second compound 0.003 µM, first compound 10 µM
# [41] = second compound 0.00949 µM, first compound 3.16 µM
# [42] = second compound 0.00949 µM, first compound 10 µM
# [43] = second compound 0.03 µM, first compound 3.16 µM
# [44] = second compound 0.03 µM, first compound 10 µM
# [45] = second compound 0.0949 µM, first compound 3.16 µM
# [46] = second compound 0.0949 µM, first compound 10 µM
# [47] = second compound 0.3 µM, first compound 3.16 µM
# [48] = second compound 0.3 µM, first compound 10 µM
# 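Note: spheroids exposed to agents for one week before readout.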
# 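Throughout, for viability, T/C: tumour cells co-cultured with HUVEC and mesenchymal stem cells in spheroids.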
smiles,measurement,setting,value
C=CC(=O)Nc1cc(Nc2nccc(-c3cn(C)c4ccccc34)n2)c(OC)cc1N(C)CCN(C)C + CCn1c(-c2cc(N3CCN(C)CC3)cnc2C(C)OC)c2c3cc(ccc31)-c1csc(n1)CC(NC(=O)C1CC1C)C(=O)N1CCCC(N1)C(=O)OCC(C)(C)C2,IC50,second compound 0.000949 µM,> 1000 nM
same,IC50,second compound 0.003 µM,> 1000 nM
same,IC50,second compound 0.00949 µM,> 1000 nM
same,IC50,second compound 0.03 µM,> 1000 nM
same,IC50,second compound 0.0949 µM,> 1000 nM
same,IC50,second compound 0.3 µM,> 1000 nM
same,"viability, T/C",[1],90.8%
same,"viability, T/C",[2],69.3%
same,"viability, T/C",[3],83.4%
same,"viability, T/C",[4],78.9%
same,"viability, T/C",[5],82.4%
same,"viability, T/C",[6],71.3%
same,"viability, T/C",[7],73.7%
same,"viability, T/C",[8],70.3%
same,"viability, T/C",[9],66.1%
same,"viability, T/C",[10],74.4%
same,"viability, T/C",[11],74.9%
same,"viability, T/C",[12],72%
same,"viability, T/C",[13],82.9%
same,"viability, T/C",[14],71.4%
same,"viability, T/C",[15],69%
same,"viability, T/C",[16],69.6%
same,"viability, T/C",[17],63%
same,"viability, T/C",[18],73%
same,"viability, T/C",[19],89.3%
same,"viability, T/C",[20],83.2%
same,"viability, T/C",[21],80.4%
same,"viability, T/C",[22],75.9%
same,"viability, T/C",[23],90.2%
same,"viability, T/C",[24],93.1%
same,"viability, T/C",[25],106%
same,"viability, T/C",[26],104%
same,"viability, T/C",[27],125%
same,"viability, T/C",[28],97.7%
same,"viability, T/C",[29],87.7%
same,"viability, T/C",[30],84.7%
same,"viability, T/C",[31],90%
same,"viability, T/C",[32],96.1%
same,"viability, T/C",[33],93%
same,"viability, T/C",[34],89.8%
same,"viability, T/C",[35],82.5%
same,"viability, T/C",[36],73.7%
CC(C)NCC(C(=O)N1CCN(c2ncnc3c2C(C)CC3O)CC1)c1ccc(Cl)cc1 (stereo not drawn) + CCn1c(-c2cc(N3CCN(C)CC3)cnc2C(C)OC)c2c3cc(ccc31)-c1csc(n1)CC(NC(=O)C1CC1C)C(=O)N1CCCC(N1)C(=O)OCC(C)(C)C2,IC50,second compound 0.000949 µM,7690 nM
same,IC50,second compound 0.003 µM,4360 nM
same,IC50,second compound 0.00949 µM,1910 nM
same,IC50,second compound 0.03 µM,1190 nM
same,IC50,second compound 0.0949 µM,717 nM
same,IC50,second compound 0.3 µM,360 nM
same,"viability, T/C",[3],91.9%
same,"viability, T/C",[4],90.3%
same,"viability, T/C",[5],80.9%
same,"viability, T/C",[6],104%
same,"viability, T/C",[37],69.3%
same,"viability, T/C",[38],44.3%
same,"viability, T/C",[9],73.9%
same,"viability, T/C",[10],82.8%
same,"viability, T/C",[11],78.3%
same,"viability, T/C",[12],88%
same,"viability, T/C",[39],58%
same,"viability, T/C",[40],29.3%
same,"viability, T/C",[15],60.9%
same,"viability, T/C",[16],74.3%
same,"viability, T/C",[17],74.4%
same,"viability, T/C",[18],74.9%
same,"viability, T/C",[41],33.4%
same,"viability, T/C",[42],19.6%
same,"viability, T/C",[21],101%
same,"viability, T/C",[22],103%
same,"viability, T/C",[23],94.2%
same,"viability, T/C",[24],52.9%
same,"viability, T/C",[43],28.4%
same,"viability, T/C",[44],17.1%
same,"viability, T/C",[27],106%
same,"viability, T/C",[28],104%
same,"viability, T/C",[29],75.8%
same,"viability, T/C",[30],39.5%
same,"viability, T/C",[45],18.8%
same,"viability, T/C",[46],12.7%
same,"viability, T/C",[33],101%
same,"viability, T/C",[34],78.6%
same,"viability, T/C",[35],55%
same,"viability, T/C",[36],27.2%
same,"viability, T/C",[47],17.1%
same,"viability, T/C",[48],10.9%
CC(Nc1ccc2c(c1)OCCn1cc(N3C(=O)OCC3C(F)F)nc1-2)C(N)=O (stereo not drawn) + CCn1c(-c2cc(N3CCN(C)CC3)cnc2C(C)OC)c2c3cc(ccc31)-c1csc(n1)CC(NC(=O)C1CC1C)C(=O)N1CCCC(N1)C(=O)OCC(C)(C)C2,IC50,second compound 0.000949 µM,> 10000 nM
same,IC50,second compound 0.003 µM,7420 nM
same,IC50,second compound 0.00949 µM,4590 nM
same,IC50,second compound 0.03 µM,1250 nM
same,IC50,second compound 0.0949 µM,249 nM
same,IC50,second compound 0.3 µM,77.5 nM
same,"viability, T/C",[3],80.9%
same,"viability, T/C",[4],81.2%
same,"viability, T/C",[5],81.5%
same,"viability, T/C",[6],72.4%
same,"viability, T/C",[37],62.2%
same,"viability, T/C",[38],56%
same,"viability, T/C",[9],71.6%
same,"viability, T/C",[10],68.2%
same,"viability, T/C",[11],63.4%
same,"viability, T/C",[12],68.3%
same,"viability, T/C",[39],62.9%
same,"viability, T/C",[40],45.5%
same,"viability, T/C",[15],72.7%
same,"viability, T/C",[16],68.9%
same,"viability, T/C",[17],70.6%
same,"viability, T/C",[18],69.5%
same,"viability, T/C",[41],59.1%
same,"viability, T/C",[42],29.9%
same,"viability, T/C",[21],94.3%
same,"viability, T/C",[22],82.6%
same,"viability, T/C",[23],64.1%
same,"viability, T/C",[24],52.6%
same,"viability, T/C",[43],42.7%
same,"viability, T/C",[44],20%
same,"viability, T/C",[27],80.3%
same,"viability, T/C",[28],61.2%
same,"viability, T/C",[29],43.8%
same,"viability, T/C",[30],35.8%
same,"viability, T/C",[45],23.7%
same,"viability, T/C",[46],12%
same,"viability, T/C",[33],65.9%
same,"viability, T/C",[34],40.2%
same,"viability, T/C",[35],32.2%
same,"viability, T/C",[36],30.3%
same,"viability, T/C",[47],19.1%
same,"viability, T/C",[48],8.63%
O=C(c1ccc(F)c(F)c1Nc1ccc(I)cc1F)N1CC(O)([C@@H]2CCCCN2)C1 + CCn1c(-c2cc(N3CCN(C)CC3)cnc2C(C)OC)c2c3cc(ccc31)-c1csc(n1)CC(NC(=O)C1CC1C)C(=O)N1CCCC(N1)C(=O)OCC(C)(C)C2,IC50,second compound 0.000949 µM,> 1000 nM
same,IC50,second compound 0.003 µM,> 1000 nM
same,IC50,second compound 0.00949 µM,> 1000 nM
same,IC50,second compound 0.03 µM,508 nM
same,IC50,second compound 0.0949 µM,98.8 nM
same,IC50,second compound 0.3 µM,58.5 nM
same,"viability, T/C",[1],79.6%
same,"viability, T/C",[2],71.2%
same,"viability, T/C",[3],66%
same,"viability, T/C",[4],57.9%
same,"viability, T/C",[5],71.4%
same,"viability, T/C",[6],56%
same,"viability, T/C",[7],71.4%
same,"viability, T/C",[8],66.6%
same,"viability, T/C",[9],68.1%
same,"viability, T/C",[10],79%
same,"viability, T/C",[11],82.6%
same,"viability, T/C",[12],60.5%
same,"viability, T/C",[13],71.3%
same,"viability, T/C",[14],65.8%
same,"viability, T/C",[15],82%
same,"viability, T/C",[16],91.3%
same,"viability, T/C",[17],80.7%
same,"viability, T/C",[18],53.5%
same,"viability, T/C",[19],110%
same,"viability, T/C",[20],105%
same,"viability, T/C",[21],98.9%
same,"viability, T/C",[22],72.6%
same,"viability, T/C",[23],59.4%
same,"viability, T/C",[24],40%
same,"viability, T/C",[25],92.7%
same,"viability, T/C",[26],90.4%
same,"viability, T/C",[27],77.8%
same,"viability, T/C",[28],50.3%
same,"viability, T/C",[29],29%
same,"viability, T/C",[30],25.6%
same,"viability, T/C",[31],80.2%
same,"viability, T/C",[32],74.9%
same,"viability, T/C",[33],54.8%
same,"viability, T/C",[34],44.8%
same,"viability, T/C",[35],29.2%
same,"viability, T/C",[36],20.3%

# Source: PubChem BioAssay AID2060894 (Molecular Pharmacology Branch, DTP, NCI, 2025)
